From US4325954A, “Pyrrolopyrimidinones and pyrroloimidazolones and their compositions and therapeutic methods” (Laboratoires Jacques Logeais, priority 1979, dated 1982)
Where two headings read alike, the source gives them in different places.

Legend:
[1] = Acute toxicity in mice (oral or intraperitoneal single dose); details: mouse, in vivo, observed at least one week
Protocol: Each compound was administered orally or intraperitoneally as a single dose.

[2] = system: palpebral ptosis induced by a reserpine injection; test: Antidepressant activity: antagonism of palpebral ptosis induced by reserpine injection; format: in vivo; details: Mus musculus; mice, oral, one hour prior to reserpine 2 mg/kg ip; recorded hourly for 3 hours (Rubin's scale); read-out: ptosis reserpine ED50 (dosage which inhibits palpebral ptosis by 50%)
Protocol: The antidepressant activity of each compound was evaluated in mice from its ability to antagonize palpebral ptosis induced by a reserpine injection. The different materials were administered orally, as a preventive treatment, one hour prior to intraperitoneal injection of reserpine (2 mg/kg). The intensity of the palpebral ptosis was then recorded at hourly intervals, for a period of time of 3 hours, according to a semi-quantitative scale (Rubin's scale). The test materials were administered at several dosage levels and, for most of them, the 50% efficient dosage (ED50) which inhibits palpebral ptosis by a factor of 50% could be evaluated.

cardiovascular system = test: Effects on the cardiovascular system in dogs; format: in vivo; details: intravenous, 0.1 mg/kg to 10 mg/kg
Protocol: The compounds of the formula (I) were administered intravenously in dogs, at dosages from 0.1 mg/kg to 10 mg/kg. The changes of blood pressure, of the femoral arterial rate, of vascular resistance subsequent to said injections were recorded.

[3] = system: peripheral and central cholinergic effects of oxotremorine; test: Atropine activity: effect on peripheral and central cholinergic effects of oxotremorine; format: in vivo; details: 100 mg/kg oral, 60 minutes prior to subcutaneous oxotremorine 2 mg/kg
Protocol: In view of the detrimental atropine-like side-effect of the conventional antidepressants, this potential property was systematically investigated in the compounds of the formula (I).
The different materials were administered orally 60 minutes prior to subcutaneous oxotremorine injection at a dosage of 2 mg/kg.
15 minutes, and then 30 and 45 minutes after injection of the cholinergic agent, the various symptoms reflecting a parasympathetic stimulation were evaluated according to a semi-quantitative arbitrary scale (from 0 to 4).
peripheral cholinergic stimulation symptoms: tearfulness, salivation;
central cholinergic stimulation: trembling, Straub's phenomenon.

[4] = ip, intraperitoneal, read-out: LD50 ip

Structure (SMILES)	LD50 [1, 4]	LD50 ([1]; oral, read-out: LD50 po)	ED50 [2]	vasoconstrictive action (cardiovascular system)	action on the blood pressure (cardiovascular system)	inhibitor activity on cholinergic effects of oxotremorine [3]
CC1N=C2CC(c3ccccc3)CN2C1=O (racemic) [Example 1]	> 200 mg/kg	> 200 mg/kg	~33 mg/kg	–	–	–
CCOC(=O)C1N=C2CC(c3ccccc3)CN2C1=O (stereo not shown) [Example 5]	> 200 mg/kg	> 200 mg/kg	~7 mg/kg	slightly vasoconstrictive	–	–
CCOC(=O)CC1N=C2CC(c3ccccc3)CN2C1=O (stereo not shown) [Example 6]	> 200 mg/kg	> 200 mg/kg	~100 mg/kg	–	slight hypotensive action	–
CCOC(=O)CCC1N=C2CCC(c3ccccc3)CN2C1=O (stereo not shown) [Example 13]	> 200 mg/kg	> 200 mg/kg	~30 mg/kg	–	–	–
CSCCC1N=C2CC(c3ccccc3)CN2C1=O (stereo not shown) [Example 8]	> 200 mg/kg	> 200 mg/kg	~30 mg/kg	–	slight hypotensive action	–
O=C1C(Cc2ccccc2)N=C2CC(c3ccccc3)CN12 (stereo not shown) [Example 4]	< 200 mg/kg	> 200 mg/kg	< 30 mg/kg	–	–	–
CCOC(=O)C1N=C2CCC(c3ccccc3)CN2C1=O (stereo not shown) [Example 12]	> 200 mg/kg	> 200 mg/kg	~30 mg/kg	–	–	–
O=C1CCN=C2CC(c3cc4ccccc4o3)CN12 (stereo not shown) [Example 15]	> 200 mg/kg	> 200 mg/kg	~33 mg/kg	–	–	–
O=C1C(c2ccccc2)N=C2CC(c3ccccc3)CN12 (racemic) [Example 3]	> 200 mg/kg	> 200 mg/kg	~30 mg/kg	–	–	–
O=C1CCN=C2CC(c3ccccc3)CN12 (stereo not shown) [Example 14]	> 200 mg/kg	> 200 mg/kg	5 mg/kg	–	–	–
CC(C)C1N=C2CC(c3ccccc3)CN2C1=O (racemic) [Example 2]	> 200 mg/kg	> 200 mg/kg	> 30 mg/kg	–	–	–
O=C1CCCN=C2CC(c3ccccc3)CN12 (stereo not shown) [Example 18]	> 200 mg/kg	> 200 mg/kg	< 33 mg/kg	–	–	–
O=C1CCN=C2CCC(c3ccccc3)N12 (stereo not shown) [Example 17]	> 200 mg/kg	> 200 mg/kg	< 100 mg/kg	–	–	–
CC(C)C1N=C2CCC(c3ccccc3)CN2C1=O (racemic) [Example 10]	> 200 mg/kg	> 200 mg/kg	~100 mg/kg	–	–	slight inhibitor activity
CCOC(=O)CCC1N=C2CC(c3ccccc3)CN2C1=O (stereo not shown) [Example 7]	> 200 mg/kg	> 200 mg/kg	~30 mg/kg	–	–	–
